Data reported in ChEMBL document CHEMBL1156139, “N-Bridged bicyclic sulfonamides as inhibitors of gamma-secretase” (Bioorg Med Chem Lett, 2009).

Key:
[1] = mouse, microsomes, 0.5 h, 2 µM
in vitro [2] = details: human, liver microsomes
in vitro [3] = details: mouse, liver microsomes
Liver microsomes [4] = details: human, 0.5 h, 2 µM
in vitro [5] = details: mouse, liver microsomes; remark: listed apart in the source
[6] = Half life in rat; type: ADME, organism-based; details: in vivo
[7] = AUC in rat; type: ADME, organism-based; details: plasma
[8] = Clearance in rat; type: ADME, organism-based; details: in vivo
[9] = Oral bioavailability in rat; type: ADME, organism-based; details: in vivo
in vitro [10] = details: human, liver microsomes; remark: listed apart in the source
[11] = mouse, microsomes, 0.5 h, 1 µM
Liver microsomes [12] = details: human, 0.5 h, 1 µM

Structure (SMILES)	Stability [1]	remaining at 0.5 h, 1 µM (in vitro [2]; Stability) [%]	remaining at 0.5 h, 1 µM (in vitro [3]; Stability) [%]	Stability (Liver microsomes [4])	remaining at 0.5 h, 2 µM (in vitro [5]; Stability) [%]	remaining at 0.5 h, 2 µM (in vitro [10]; Stability) [%]	Stability [11]	Stability (Liver microsomes [12])	also measured
O=S(=O)(c1ccc(Cl)cc1)N1C2Cc3[nH]ncc3C1CC(/C=C\Cl)C2 (stereo unspecified)	Not Active	14	3	Not Active	–	–	–	–	–
O=S(=O)(c1ccc(Cl)cc1)N1C2CCCC1c1cn[nH]c1C2 (stereo unspecified)	–	48	15	–	5	0	–	–	half-life [6]: 0.4 h; AUC [7]: 0.16 µM·h; clearance [8]: 38.9 mL/min/kg; bioavailability [9]: 2%
N#CC1CC2Cc3[nH]ncc3C(C1)N2S(=O)(=O)c1ccc(Cl)cc1 (stereo in doubt)	–	–	–	–	81	45	74%	70%	half-life [6]: 1.02 h; AUC [7]: 3.4 µM·h; clearance [8]: 28.4 mL/min/kg; bioavailability [9]: 21%
O=S(=O)(c1ccc(Cl)cc1)N1C2Cc3[nH]ncc3C1CC(/C=C/Cl)C2 (stereo unspecified)	–	6	7	–	37	1	–	–	–
CN(C)C(=O)N1CC2Cc3[nH]ncc3C(C1)N2S(=O)(=O)c1ccc(Cl)cc1 (stereo unspecified)	Not Active	86	56	Not Active	–	–	–	–	–
O=S(=O)(c1ccc(Cl)cc1)N1C2COCC1c1cn[nH]c1C2 (stereo in doubt; 32)	–	–	75	–	93	71	–	100%	–
O=S(=O)(c1ccc(Cl)cc1)N1C2Cc3[nH]ncc3C1CC(/C=C\C(F)(F)F)C2 (stereo unspecified)	Not Active	38	17	Not Active	–	–	–	–	–
O=S(=O)(c1ccc(Cl)cc1)N1C2COCC1c1cn[nH]c1C2 (stereo in doubt)	100%	–	–	86%	–	–	80%	78%	half-life [6]: 1.15 h; AUC [7]: 2.9 µM·h; clearance [8]: 31.2 mL/min/kg; bioavailability [9]: 19%
N#CC1CC2Cc3[nH]ncc3C(C1)N2S(=O)(=O)c1ccc(Cl)cc1 (stereo in doubt; form 2)	Not Active	68	86	Not Active	–	–	–	–	–
CS(=O)(=O)N1CC2Cc3[nH]ncc3C(C1)N2S(=O)(=O)c1ccc(Cl)cc1 (stereo unspecified)	–	–	–	–	–	–	–	–	remaining at 0.5 h, 2 µM (in vitro [5]): 96%; remaining at 0.5 h, 1 µM (in vitro [2]): 84%; remaining at 0.5 h, 2 µM (in vitro [10]): 55%; remaining at 0.5 h, 1 µM (in vitro [3]): 80%
N#CC1CC2Cc3[nH]ncc3C(C1)N2S(=O)(=O)c1ccc(Cl)cc1 (stereo in doubt; form 1)	–	–	–	–	–	–	80%	72%	–
Cl.O=S(=O)(c1ccc(Cl)cc1)N1C2COCC1c1cn[nH]c1C2 (stereo unspecified)	94%	–	–	71%	–	–	78%	81%	–
O=C(O)C1CC2Cc3[nH]ncc3C(C1)N2S(=O)(=O)c1ccc(Cl)cc1 (stereo unspecified)	Not Active	–	–	Not Active	–	–	Not Active	Not Active	–
O=S(=O)(c1ccc(Cl)cc1)N1C2Cc3[nH]ncc3C1CC(/C=C/C(F)(F)F)C2 (stereo unspecified)	–	6	36	–	39	2	–	–	–
